The record followed here is patent US20150352134A1, “COMPOSITION FOR TOPICAL SKIN APPLICATION CONTAINING GINSENOSIDE F2 DERIVED FROM HYDROPONIC GINSENG” (AMOREPACIFIC CORPORATION, priority 2012, published 2015).

Structures are written as SMILES.

Assay [1] relates to potassium ion channels (KATP channels). Kind of assay: KATP channel opener test: recovery of NIH3T3 proliferation blocked by tolbutamide (WST-1). It is filed as cell-based, mouse. The following applies: 48 hours. The text has this: Minoxidil, a treatment for hair loss, is known as a potassium ion channel opener (KATP channel opener) potentially acting on mitochondria and a representative drug used for treatment of androgenic alopecia (hair loss). A testing method used to evaluate the action of minoxidil includes treating with tolbutamide (SIGMA-ALDRICH, T0891) blocking the potassium ion channels (KATP channels) in fibroblasts constituting the corium of scalp to inhibit cell proliferation and then opening the potassium ion channels (KATP channels) to resume the cell proliferation. In order to evaluate the function of the composition of the present invention as a KATP channel opener, the present invention uses a mouse embryonic fibroblast cell line, NIH3T3, as fibroblasts. The cell line is obtained by naturally immortalizing a fibroblast cell line isolated from an NIH Swiss mouse embryo with 3T3 protocol. The cell line is cultured with DMEM (Dulbecco's modified eagle's medium, Gibco BRL, Gaithersburg, Md., U.S.A.) containing 10% FBS (Fetal Bovine Serum) in an incubator under the conditions of 5% CO2 and 37° C. for 24 hours.
In general terms: Tetrazolium assays rely on reduction of a dye to a coloured formazan, in cell work by metabolically active cells.

Assay [2] deals with mouse with vitiligo (C57b1/6-Mitf^mi-vit). Kind of assay: Grey hair prevention: melanin in newly grown hair of mouse with vitiligo. The format is in vivo. The settings on record: applied twice a day, about 3 weeks, 50 mM IBMX, 2.5% ginsenoside F2. How it is done:
A mouse with vitiligo (C57b1/6-Mitf^mi-vit) is purchased from The Jackson Lab in U.S.A. The testing method on the grey hair inhibitory effect using a mouse with lots of grey hair is carried out as follows. A 12-week old mouse is subjected to depilation on the back side. The area of the depilated region is controlled to be the same to every object. From the next day of the depilation, the grey hair inhibitory substances are applied on the depilated region twice a day. The vehicle for the grey hair inhibitory substances is the mixture of EtOH, 1,3-BG and DW (3:2:5 in volume ratio). The liquid containing the vehicle alone is the negative control, the liquid containing the vehicle in combination with 50 mM IBMX is the positive control, and the liquid containing the vehicle in combination with 2.5% ginsenoside F2 is the test group. When the difference in the grey hair inhibitory effect between the substances is visually recognizable in about 3 weeks, the newly grown hair is collected to measure the quantity of melanin produced in the hair. The quantity of melanin in the hair is measured using esperase (Novozyme) strains that are a protein hydrolase. Esperase is dissolved in a buffer solution (50 mM tris-HCl, 5 mM DTT, pH 9.3) to a concentration of 1 NPU/ml to prepare a reaction buffer. 5 mg of mouse hair is put in 1 ml of the reaction buffer, which is stirred at a speed of 1,000 rpm at 37° C. for 13 hours to cause the reaction and then subjected to a momentary centrifugal isolation to separate the reactant solution from hair. The reactant solution thus obtained is placed in each well of a 96-well plate, and the absorbance at 405 nm is measured to determine the amount of melanin in the reactant solution. When a mouse with vitiligo and lots of grey hair is treated with the negative control substance, the positive control substance, or the test substance, the efficacies are visually observed, and the melanin in hair is quantitatively analyzed.

Assay [3] deals with Keratinocytes isolated from the human epidermal tissue. Briefly: Inhibition of reactive oxygen species formation after UVB (DCF-DA fluorescence). The following applies: 1% ginsenoside F2; for ratio to the ROS of the control group, elapsed time after exposure to 30 mJ/cm^2 of UVB 0 hr: 0 hr after 30 mJ/cm^2 UVB; for ratio to the ROS of the control group, elapsed time after exposure to 30 mJ/cm^2 of UVB 2 hrs: 2 hrs after 30 mJ/cm^2 UVB; for ratio to the ROS of the control group, elapsed time after exposure to 30 mJ/cm^2 of UVB 3 hrs: 3 hrs after 30 mJ/cm^2 UVB. It is filed as cell-based. The procedure:
5×10^4 Keratinocytes isolated from the human epidermal tissue are put in each well of a 24-well plate and immobilized for 24 hours. After 16 hours, the keratinocytes are treated with 1% ginsenoside F2. For a comparison, the control group is not treated with ginsenoside F2. Each well is removed of the culture medium after 2 hours and then fed with 100 μl of a phosphate-buffered saline (PBS) solution. The keratinocytes are exposed to 30 mJ/cm^2 of ultraviolet radiation under an ultraviolet B (UVB) lamp (Model: F15T8, UV B 15 W, Sankyo Denki Co., Ltd., Japan). Each well is removed of the PBS solution and then supplied with 200 μl of the keratinocyte culture medium. The well is treated with ginsenoside F2 again. Then, the quantity of the reactive oxygen species (ROS) increased by the UV stimulation is determined at defined time intervals. The quantity of the reactive oxygen species (ROS) is determined according to the method that includes measuring the fluorescence of dichlorofluorescin diacetate (DCF-DA) (Tan et al., 1998, J. Cell Biol. Vol. 141, pp 1423-1432).

Assay [4] has as its system B16/F10 melanoma cells. Kind of assay: Melanogenesis inhibition in B16/F10 melanoma cells. It is filed as cell-based. The following applies: sample containing 0.001 wt. % of test substance; 3-day cultivation. How it is done: As a test substance, a sample containing 0.001 wt. % of ginsenoside F2 or kojic acid is added to a culture medium of B16/F10 melanoma cells (available from Korean Cell Line Bank) at a predetermined concentration. The culture medium is eliminated after 3-day cultivation. The cells are washed with PBS and dissolved in 1N NaOH. Then, the absorbance at 405 nm is measured. The control is the cells not treated with any test substance. In comparison with the melanin content in the control group, the inhibitory ability of each test substance against melanogenesis is measured. […] [formula]

The subject of assay [5] is Melanin-a cells. Kind of assay: Melanogenesis promotion in Melanin-a cells. The format is cell-based. The settings on record: 3 days, DMSO (0.1%) = 100. How it is done:
Melanin-a cells are injected in a 24-well microtiter plate at a rate of 50,000 cells per well with an RPMI medium containing 5% fetal bovine serum, 100 IU penicillin G, and 0.2 μM TPA. Next day, the cells are treated with ginsenoside F2 as a test substance independently at the final concentration of 10 ppm or 50 ppm. The negative control is treated with 0.1% DMSO, and the positive control is treated with 100 μM IBMX. Then, the cells are cultured at 37° C. for 3 days. The wells of the plate are washed with PBS, and 100 μl of 1N NaOH is added to each well to dissolve melanin in the cells. The absorbance of the dissolved melanin is measured at 405 nm with a microplate reader. The effect of the ginsenoside F2 to promote melanogenesis is evaluated in comparison with that of the control groups.

Setting [6] is: 2.5 ppm after 2.5 mM tolbutamide.
Where [7] appears, read: 10 ppm after 2.5 mM tolbutamide.

Turning to `CC(C)=CCC[C@](C)(O[C@@H]1O[C@H](CO)[C@@H](O)[C@H](O)[C@H]1O)[C@H]1CC[C@]2(C)[C@@H]1[C@H](O)C[C@@H]1[C@@]3(C)CC[C@H](O[C@@H]4O[C@H](CO)[C@@H](O)[C@H](O)[C@H]4O)C(C)(C)[C@@H]3CC[C@]12C` [Ginsenoside F2, ginsenoside F2], the “Cell proliferation ability (%)” value in assay [1] (setting [6]) is 115%; in assay [1] (5 ppm after 2.5 mM tolbutamide), 120%; in assay [1] (setting [7]), 131%. For the same compound, in assay [2], the “Amount of melanin (%) with respect to control” value amounted to 110.8%. In assay [3], the “ratio to the ROS of the control group, elapsed time after exposure to 30 mJ/cm^2 of UVB 0 hr” value was found to be 100. For the same compound, the “ratio to the ROS of the control group, elapsed time after exposure to 30 mJ/cm^2 of UVB 2 hrs” value in assay [3] was found to be 251. Also, in assay [3], the “ratio to the ROS of the control group, elapsed time after exposure to 30 mJ/cm^2 of UVB 3 hrs” value is reported as 286. Moreover, in assay [4], the “Melanogenesis inhibition rate (%)” value is recorded as 72%. For the same compound, the “Yield of Melanin (%)” value stood at 113% in assay [5] (10 ppm) and 129% in assay [5] (50 ppm).
`CC(C)=CCC[C@](C)(O[C@@H]1O[C@H](CO[C@@H]2O[C@H](CO)[C@@H](O)[C@H](O)[C@H]2O)[C@@H](O)[C@H](O)[C@H]1O)[C@H]1CC[C@]2(C)[C@@H]1[C@H](O)C[C@@H]1[C@@]3(C)CC[C@H](O[C@@H]4O[C@H](CO)[C@@H](O)[C@H](O)[C@H]4O[C@@H]4O[C@H](CO)[C@@H](O)[C@H](O)[C@H]4O)C(C)(C)[C@@H]3CC[C@]12C` [Ginsenoside Rb1]: the figures for the “Cell proliferation ability (%)” value in assay [1] (setting [6]), in assay [1] (5 ppm after 2.5 mM tolbutamide) and in assay [1] (setting [7]) were 113%, 117% and 124%, respectively. Further, the “Amount of melanin (%) with respect to control” value in assay [2] is reported as 107.1%. In addition, in assay [3], the “ratio to the ROS of the control group, elapsed time after exposure to 30 mJ/cm^2 of UVB 0 hr” value came out at 100. Moreover, in assay [3], the “ratio to the ROS of the control group, elapsed time after exposure to 30 mJ/cm^2 of UVB 2 hrs” value is listed as 302. Besides, the “ratio to the ROS of the control group, elapsed time after exposure to 30 mJ/cm^2 of UVB 3 hrs” value in assay [3] is given as 354. Moreover, the “Melanogenesis inhibition rate (%)” value in assay [4] is given as 61%. For the same compound, the “Yield of Melanin (%)” value in assay [5] (10 ppm) is 112%; in assay [5] (50 ppm), 120%.
